Series [1] has as its system neutrophils. The experiment in a line: Cytotoxicity assay (MTS), neutrophils. In kind it is cell-based. To be noted: 2.5 to 50 μM, 24 h. As for the experimental part:
(§1) Neutrophils and normal mouse embryonic fibroblasts (3T3) cells were seeded in 96-well plates which have 5×10^4 cells per well and incubated for 24 h. Then, BTPDNe at different concentrations (2.5, 5, 10, 20 and 50 μM) was added into the neutrophils and 3T3 cells, respectively. After 24 h incubation, MTS assay was added to the cell for 4 h incubation. After incubation, the absorbance of MTS at 490 nm was recorded by using a microplate reader (SpectraMax M, Switzerland). The assays were performed in five sets for each concentration.

For series [2], the target named is T1, NE (Homo sapiens, UniProt P08246).
T1 sequence (P08246 30-267): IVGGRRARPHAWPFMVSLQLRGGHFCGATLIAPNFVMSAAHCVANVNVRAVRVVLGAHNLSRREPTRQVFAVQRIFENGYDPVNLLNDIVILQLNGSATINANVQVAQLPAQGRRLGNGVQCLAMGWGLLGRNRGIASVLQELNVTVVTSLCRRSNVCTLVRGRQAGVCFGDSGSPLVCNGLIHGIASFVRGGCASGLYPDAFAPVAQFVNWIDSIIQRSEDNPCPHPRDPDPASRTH
Description: Chemiluminescence and fluorescence changes of BTPDNe and MPDNe in the presence of NE (response, selectivity, LOD, half-life). In kind it is biochemical. As for the experimental part:
Chemiluminescence and fluorescence changes of BTPDNe (20 μM) were determined in the presence of NE (0.1 U/ml), other different enzymes (˜0.1 U/mL, APN, ALP, Cas-3, cat B, GGT, β-gal and NTR) in 50 mM Tris, 1 M NaCl, 0.05% (w/v) Brij-35, pH 7.5 at 37° C. after 30 min incubation.
Chemiluminescence and fluorescence changes of BTPDNe and MPDNe (20 μM) in the presence of NE (0.1 U/mL), or other different enzymes (˜0.1 U/mL, APN, ALP, Cas-3, Cat B, GGT, β-gal, NTR, CatG and PR3) were tested after 30 min incubation in 50 mM Tris, 1 M NaCl, 0.05% (w/v) Brij-35, pH 7.5 at 37° C.
To determine the LOD for NE enzyme detection, the chemiluminescence of BTPDNe was recorded in 50 mM Tris, 1 M NaCl, 0.05% (w/v) Brij-35, pH 7.5 at 37° C. with different concentrations of NE (0, 0.05, 0.1, 0.5, 1, and 2 U/ml) for 30 min incubation. Then, initial reaction velocity was calculated.

Series [3] has as its system 3T3 cells. The experiment in a line: Cytotoxicity assay (MTS), 3T3 cells. Format: cell-based, mouse. To be noted: 2.5 to 50 μM, 24 h. The procedure: as §1
Series [4] has as its target T1, NE. Description: Enzyme kinetics study of NE with BTPDNe (Michaelis-Menten, HPLC). In kind it is biochemical. To be noted: NE 0.1 U/mL, BTPDNe 2-80 μM. As for the experimental part:
To carry out the kinetic assay, various concentrations of BTPDNe (2, 5, 10, 20, 40 and 80 μM) were incubated with NE (0.1 U/mL) at 37° C. for 10 min in 50 mM Tris, 1 M NaCl, 0.05% (w/v) Brij-35, and at pH=7.5. After incubation, quantification analyses were determined by HPLC. The initial reaction velocity was calculated, plotted against the concentration of BTPDNe, and fitted to a Michaelis-Menten curve. Finally, the kinetic parameters were calculated by Michaelis Menten equation: […]
where v is initial velocity, and [S] is substrate concentration.

The nature of series [5]: Blood test: chemiluminescence after incubation in healthy mouse blood. The following applies: 20 μM, 30 min, 100 μL blood. As for the experimental part:
BTPDNe (20 μM) and MPDNe (20 μM) were incubated for 30 min in healthy mouse blood (100 μL), respectively. Chemiluminescence intensities were measured by IVIS system bioluminescence with an acquisition time of 60 s.

The test system of series [6] is neutrophils. Description: In vitro cell chemiluminescent imaging. Format: cell-based. As for the experimental part: 3T3 cells and immune cells (neutrophils, DC cells, T-cells and macrophage) (10^4 cells) were seeded into confocal cell culture dishes (dia. 15 mm) and incubated for 24 h. […] After incubation, the medium was removed, and the cells were washed thrice. Chemiluminescence imaging of the cells were recorded on LX71 inverted microscope (Olympus), which was equipped with infinity 3-1 (Lumenera) CCD camera. During imaging, the excitation light was blocked and the images were recorded under an open filter, with an acquisition time of 60 s.

Series [7] has as its system LPS-treated mice. The experiment in a line: Real-time chemiluminescence imaging in LPS-induced peritonitis model. Format: in vivo. The procedure:
The model was induced by intraperitoneal injection of LPS (15 ng) in 100 μL of PBS or PBS only as a control. Probe BTPDNe (40 μM·Kg^−1) or MPDNe (40 μM·Kg^−1) in PBS (10 mM, pH 7.4) containing 10% DMSO was intraperitoneally injected in mice. Then, chemiluminescent signals at different post-injection timepoints (0, 5, 10, 20, 45 and 60 min) were recorded using IVIS system bioluminescence with acquiring time of 120 s. After 3 h, the peritoneum was flushed with PBS (5 mL)+EDTA (5 mM). After erythrocyte lysis, neutrophils from C57Bl/6 mice were stained with a PE-labeled CD. After treatment with LPS for 3 h, CD11c antibody and an APC-labeled Ly6G antibody were added to the neutrophils, and the neutrophils were analyzed for double-positive events using flow cytometry (BD Biosciences). Data analysis was performed using Flowjo V10. Neutrophils were gated as CD45+CD11b+Ly6G+cells after the exclusion of doublets.
Fluorescence and chemiluminescence in vivo imaging of the probes were measured by an IVIS spectrum imaging system. Chemiluminescence imaging of the cells was recorded on LX71 inverted microscope. Tissue slices were cut by Leica, Germany slicer and imaged by a Nikon ECLIPSE 80i microscope. The images of tissue sections and cells were recorded with a LSM800 confocal laser scanning microscope. The white light was provided by 150 W LED High Bay Thermo Light.

Data on one compound can be found in US20240277873A1, “ULTRABRIGHT […] PROBES FOR DETECTION AND IMAGING” (Nanyang Technological University, priority 2021, published 2024).

As a reminder, the Km is the substrate concentration at which the rate is half of its maximum.

As for `COC1(c2ccc(-c3nc4ccccc4s3)c(OCc3ccc(NC(=O)[C@@H](NC(=O)[C@@H]4CCCN4C(=O)[C@H](C)NC(=O)[C@H](C)NC(C)=O)C(C)C)cc3)c2)OOC12C1CC3CC(C1)CC2C3` (stereo partly drawn) [BTPDNe], in series [1], the “cytotoxicity (cell viability, MTS)” value is recorded as “no cytotoxicity”. Besides, the “selectivity towards NE over other enzymes” value in series [2] (APN, ALP, Cas-3, cat B, GGT, furin, β-gal, NTR, PR3, CatG (~0.1 U/mL)) is recorded as “high selectivity”. The “fluorescence increase after incubation with NE” value in series [2] (at 515 nm, probe 20 μM, NE 0.1 U/mL, 30 min) worked out at 20.1 fold. For the same compound, the “chemiluminescence enhancement after incubation with NE” value in series [2] (probe 20 μM, NE 0.1 U/mL, 50 mM Tris, 1 M NaCl, 0.05% Brij-35, pH 7.5, 37° C., 30 min, BTPDNe at 515 nm, MPDNe at 550 nm) is listed as roughly 42.3 fold. The “cytotoxicity (cell viability, MTS)” value in series [3] is “no cytotoxicity”. This compound also showed an enzyme kinetic coefficient in series [4] of 1.32 µM⁻¹ min⁻¹. Also, in series [4] (37° C., 10 min, pH 7.5), the Kcat was determined as 1.15 s⁻¹ and the Km is 52.2 µM. In addition, the “chemiluminescence intensities after incubation with healthy mouse blood” value in series [5] is given as “Negligible”. Further, the “differentiation of neutrophils from other immune cells” value in series [6] (neutrophil, DC, macrophage, CTL, 3T3, 20 μM) was “differentiated neutrophils from other immune cells”. Further, the “activated chemiluminescence signal in neutrophils, 30 min” value in series [6] (probe 10 μM, incubation 30 min) is given as 63.0 pixels. In addition, the “activated chemiluminescence signal in neutrophils, 1 h” value in series [6] (probe 10 μM, incubation 1 h) is given as 42.7 pixels. Moreover, the “chemiluminescent signal relative to MPDNe-injected mice” value in series [7] (20 min post-treatment of probes) is reported as roughly 2.15 fold. For the same compound, the “chemiluminescent signals after 60 min” value in series [7] (LPS-treated mice, 60 min post injection) is “could still be observed”. Besides, in series [7] (LPS-treated mice, 3 h post LPS, i.p. probe 40 μM·kg^−1), the “maximum chemiluminescent signal enhancement in peritoneum relative to negative control group” value is on record as roughly 9.2 fold.
